Experimental data published in patent publication US10385057B2, “Pyrazole compounds and methods of making and using same” (Lundbeck La Jolla Research Center, Inc., priority 2015, dated 2019).

Legend:
FAAH = target: T1, FAAH (Mus musculus, UniProt O08914); assay: In vitro competitive activity-based protein profiling, mouse FAAH; type: biochemical; conditions: for inhibition at 1 µM: read-out: FAAH % inh. 1 μM (mouse)
T1 construct: mouse brain membrane fraction or cell lysates for mouse assays; from tissue
T1 sequence (O08914 1-579): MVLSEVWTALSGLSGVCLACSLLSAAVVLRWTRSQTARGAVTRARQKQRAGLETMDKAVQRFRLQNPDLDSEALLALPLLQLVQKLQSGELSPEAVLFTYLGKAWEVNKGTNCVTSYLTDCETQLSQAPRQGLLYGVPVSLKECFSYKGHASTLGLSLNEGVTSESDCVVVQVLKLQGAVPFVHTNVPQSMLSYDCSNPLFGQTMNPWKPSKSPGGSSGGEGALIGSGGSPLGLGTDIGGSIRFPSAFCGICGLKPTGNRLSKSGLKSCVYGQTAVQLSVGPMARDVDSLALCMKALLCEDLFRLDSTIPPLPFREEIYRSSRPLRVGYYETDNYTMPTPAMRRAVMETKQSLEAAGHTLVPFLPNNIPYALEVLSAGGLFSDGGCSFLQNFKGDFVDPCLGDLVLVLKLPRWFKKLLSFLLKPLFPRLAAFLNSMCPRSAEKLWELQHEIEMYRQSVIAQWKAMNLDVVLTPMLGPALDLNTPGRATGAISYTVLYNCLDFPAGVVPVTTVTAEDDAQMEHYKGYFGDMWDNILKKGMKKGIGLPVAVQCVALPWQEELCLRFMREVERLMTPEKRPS
Procedure, shortened: (§1)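 Mouse brain membranes or cell lysates (mouse) and human prefrontal cortex or cell membrane fractions (human), 1.0 mg/mL protein, preincubated with inhibitor 30 min at 37 °C, then FP-Rh or HT-01 probe 30 min at 37 °C. SDS-PAGE; MAGL and FAAH activity from in-gel fluorescence band intensity.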

MAGL [1] = target: T2, MAGL (Mus musculus, UniProt O35678); assay: Mouse brain proteomes from inhibitor treated mice, MAGL; type: in vivo; conditions: oral gavage, brain 4 h after administration, read-out: MAGL % inh. 5 mg/kg (mouse)
T2 construct: mouse brain membrane fraction or cell lysates for mouse assays; from tissue
T2 sequence (O35678 1-303): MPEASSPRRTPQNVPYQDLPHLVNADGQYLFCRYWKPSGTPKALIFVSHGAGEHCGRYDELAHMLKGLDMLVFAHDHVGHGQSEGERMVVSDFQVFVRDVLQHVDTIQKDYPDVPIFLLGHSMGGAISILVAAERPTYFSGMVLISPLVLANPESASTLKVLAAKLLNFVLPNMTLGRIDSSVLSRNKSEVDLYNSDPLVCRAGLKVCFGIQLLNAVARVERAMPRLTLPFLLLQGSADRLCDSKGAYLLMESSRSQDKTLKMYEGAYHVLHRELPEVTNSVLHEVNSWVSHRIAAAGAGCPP
Protocol: Preparation of Mouse Brain Proteomes from Inhibitor Treated Mice.
Inhibitors were administered to wild-type C57Bl/6J by oral gavage in a vehicle of polyethylene glycol. Each animal was sacrificed 4 h following administration and brain proteomes were prepared and analyzed according to previously established methods (See Niphakis, M. J., et al. (2011) ACS Chem. Neurosci. and Long, J. Z., et al. Nat. Chem. Biol. 5:37-44).

MAGL [2] = target: T2, MAGL; assay: In vitro competitive activity-based protein profiling, mouse MAGL; type: biochemical; conditions: for inhibition at 1 µM: read-out: MAGL % inh. 1 μM (mouse)
Procedure, shortened: as §1

| Structure (SMILES) | inhibition at 1 µM (FAAH; 1 μM) [%] | inhibition at 5 mg/kg (MAGL [1]) [%] | inhibition at 1 µM (MAGL [2]; 1 μM) [%] | IC50 (FAAH) [nM] | IC50 (MAGL [2]) [nM] | FAAH % inh. 1 μM (mouse) (FAAH; 1 μM) | MAGL % inh. 1 μM (mouse) (MAGL [2]; 1 μM) |
| --- | --- | --- | --- | --- | --- | --- | --- |
| NC(=O)c1cnn(C(=O)N2CCC3(CCN(Cc4cc(Cl)ccc4Cl)C3)C2)c1 (stereo not shown) [Example 39, 1-(7-(2,5-dichlorobenzyl)-2,7-diazaspiro[4.4]nonane-2-carbonyl)-1H-pyrazole-4-carboxamide] | ≥ 75 | ≥ 75 | ≥ 75 | – | – | – | – |
| NC(=O)c1cnn(C(=O)N2CCC3(CCN(Cc4cccc(C(F)(F)F)c4)C3)C2)c1 (stereo not shown) [Example 41, 1-(7-(3-(trifluoromethyl)benzyl)-2,7-diazaspiro[4.4]nonane-2-carbonyl)-1H-pyrazole-4-carboxamide] | ≥ 75 | ≥ 75 | ≥ 75 | ≤ 100 | 100 to 1000 | – | – |
| NC(=O)c1cnn(C(=O)N2CCC3(CCN(Cc4cc(Cl)cc(C(F)(F)F)c4)C3)C2)c1 (stereo not shown) [Example 43, 1-(7-(3-chloro-5-(trifluoromethyl)benzyl)-2,7-diazaspiro[4.4]nonane-2-carbonyl)-1H-pyrazole-4-carboxamide] | ≥ 75 | ≥ 75 | ≥ 75 | ≤ 100 | ≤ 100 | – | – |
| NC(=O)c1cnn(C(=O)N2CCC3(CCN(Cc4ccc(N5CCOCC5)cc4C(F)(F)F)C3)C2)c1 (stereo not shown) [Example 45, 1-(7-(4-morpholino-2-(trifluoromethyl)benzyl)-2,7-diazaspiro[4.4]nonane-2-carbonyl)-1H-pyrazole-4-carboxamide] | ≥ 75 | ≥ 75 | ≥ 75 | ≤ 100 | 100 to 1000 | – | – |
| O=C(c1cnn(C(=O)N2CCC3(CCN(Cc4ccc(N5CCOCC5)cc4C(F)(F)F)C3)C2)c1)N1CCCC1 (stereo not shown) [Example 50, (1-(7-(4-morpholino-2-(trifluoromethyl)benzyl)-2,7-diazaspiro[4.4]nonane-2-carbonyl)-1H-pyrazol-4-yl)(pyrrolidin-1-yl)methanone] | ≥ 75 | 0 to 25 | ≥ 75 | ≤ 100 | 100 to 1000 | – | – |
| CNC(=O)c1cnn(C(=O)N2C[C@H]3C[C@@H](N(C)Cc4ccc(C(F)(F)F)cc4)C[C@H]3C2)c1 [Example 54, N-methyl-1-(cis-5-(methyl(4-(trifluoromethyl)benzyl)amino)octahydrocyclopenta[c]pyrrole-2-carbonyl)-1H-pyrazole-4-carboxamide] | ≥ 75 | ≥ 75 | ≥ 75 | ≤ 100 | 100 to 1000 | – | – |
| CN(Cc1ccc(C(F)(F)F)cc1)[C@@H]1C[C@@H]2CN(C(=O)n3cc(C(N)=O)cn3)C[C@@H]2C1 [Example 55, 1-(cis-5-(methyl(4-(trifluoromethyl)benzyl)amino)octahydrocyclopenta[c]pyrrole-2-carbonyl)-1H-pyrazole-4-carboxamide] | ≥ 75 | ≥ 75 | ≥ 75 | ≤ 100 | ≤ 100 | – | – |
| CN(Cc1ccccc1Cl)[C@@H]1C[C@@H]2CN(C(=O)n3cc(Cl)cn3)C[C@@H]2C1 [Example 59, (4-chloro-1H-pyrazol-1-yl)(trans-5-((2-chlorobenzyl)(methyl)amino)hexahydrocyclopenta[c]pyrrol-2(1H)-yl)methanone] | – | ≥ 75 | – | ≤ 100 | ≤ 100 | A (% inhibition greater than or equal to 75%) | A (% inhibition greater than or equal to 75%) |
| CN(Cc1ccccc1Cl)[C@@H]1C[C@@H]2CN(C(=O)n3cc(C(N)=O)cn3)C[C@@H]2C1 [Example 88, 1-(cis-5-((2-chlorobenzyl)(methyl)amino)octahydrocyclopenta[c]pyrrole-2-carbonyl)-1H-pyrazole-4-carboxamide] | ≥ 75 | ≥ 75 | ≥ 75 | ≤ 100 | 100 to 1000 | – | – |

Continued, in another order:

| inhibition at 1 µM (FAAH; 1 μM) [%] | inhibition at 5 mg/kg (MAGL [1]) [%] | inhibition at 1 µM (MAGL [2]; 1 μM) [%] | IC50 (FAAH) [nM] | IC50 (MAGL [2]) [nM] | Structure (SMILES) | FAAH % inh. 1 μM (mouse) (FAAH; 1 μM) | MAGL % inh. 1 μM (mouse) (MAGL [2]; 1 μM) |
| --- | --- | --- | --- | --- | --- | --- | --- |
| ≥ 75 | ≥ 75 | ≥ 75 | – | – | CN(Cc1ccccc1C(F)(F)F)[C@@H]1C[C@@H]2CN(C(=O)n3cc(C(N)=O)cn3)C[C@@H]2C1 [Example 90, 1-(cis-5-(methyl(2-(trifluoromethyl)benzyl)amino)octahydrocyclopenta[c]pyrrole-2-carbonyl)-1H-pyrazole-4-carboxamide] | – | – |
| ≥ 75 | ≥ 75 | ≥ 75 | ≤ 100 | 100 to 1000 | CN(Cc1ccccc1Cl)[C@H]1C[C@@H]2CN(C(=O)n3cc(C(N)=O)cn3)C[C@@H]2C1 [Example 96, 1-(trans-5-((2-chlorobenzyl)(methyl)amino)octahydrocyclopenta[c]pyrrole-2-carbonyl)-1H-pyrazole-4-carboxamide] | – | – |
| ≥ 75 | 0 to 25 | ≥ 75 | ≤ 100 | 100 to 1000 | O=C(N1CCC2(CCN(Cc3ccccc3Cl)C2)C1)n1cc(Cl)cn1 (stereo not shown) [Example 112, (4-chloro-1H-pyrazol-1-yl)(7-(2-chlorobenzyl)-2,7-diazaspiro[4.4]nonan-2-yl)methanone] | – | – |
| ≥ 75 | 25 to 50 | ≥ 75 | ≤ 100 | 100 to 1000 | O=C(N1CC2CN(Cc3ccccc3Cl)CC2C1)n1cc(Cl)cn1 (stereo not shown) [Example 116, (4-chloro-1H-pyrazol-1-yl)(5-(2-chlorobenzyl)hexahydropyrrolo[3,4-c]pyrrol-2(1H)-yl)methanone] | – | – |
| ≥ 75 | ≥ 75 | ≥ 75 | ≤ 100 | 100 to 1000 | O=C(N1CC2CN(Cc3ccc(Cl)cc3)CC2C1)n1cc(Cl)cn1 (stereo not shown) [Example 118, (4-chloro-1H-pyrazol-1-yl)(5-(4-chlorobenzyl)hexahydropyrrolo[3,4-c]pyrrol-2(1H)-yl)methanone] | – | – |
| ≥ 75 | – | ≥ 75 | – | – | CN(Cc1ccc(-c2cnccn2)cc1C(F)(F)F)[C@H]1C[C@@H]2CN(C(=O)n3cc(C(N)=O)cn3)C[C@@H]2C1 [Example 223, 1-(trans-5-(methyl(4-(pyrazin-2-yl)-2-(trifluoromethyl)benzyl)amino)octahydrocyclopenta[c]pyrrole-2-carbonyl)-1H-pyrazole-4-carboxamide] | – | – |
| ≥ 75 | – | ≥ 75 | – | – | CN(Cc1ccc(-c2nccs2)cc1C(F)(F)F)[C@H]1C[C@@H]2CN(C(=O)n3cc(C(N)=O)cn3)C[C@@H]2C1 [Example 224, 1-(trans-5-(methyl(4-(thiazol-2-yl)-2-(trifluoromethyl)benzyl)amino)octahydrocyclopenta[c]pyrrole-2-carbonyl)-1H-pyrazole-4-carboxamide] | – | – |
| 50 to 75 | – | ≥ 75 | – | – | CN(Cc1ccc(-c2cccnn2)cc1C(F)(F)F)[C@H]1C[C@@H]2CN(C(=O)n3cc(C(N)=O)cn3)C[C@@H]2C1 [Example 225, 1-(trans-5-(methyl(4-(pyridazin-3-yl)-2-(trifluoromethyl)benzyl)amino)octahydrocyclopenta[c]pyrrole-2-carbonyl)-1H-pyrazole-4-carboxamide] | – | – |
| ≥ 75 | – | ≥ 75 | – | – | CN(Cc1ccc(-c2cnccn2)cc1C(F)(F)F)[C@@H]1C[C@@H]2CN(C(=O)n3cc(C(N)=O)cn3)C[C@@H]2C1 [Example 226, 1-(cis-5-(methyl(4-(pyrazin-2-yl)-2-(trifluoromethyl)benzyl)amino)octahydrocyclopenta[c]pyrrole-2-carbonyl)-1H-pyrazole-4-carboxamide] | – | – |
| ≥ 75 | – | ≥ 75 | – | – | CN(Cc1ccc(-c2nccs2)cc1C(F)(F)F)[C@@H]1C[C@@H]2CN(C(=O)n3cc(C(N)=O)cn3)C[C@@H]2C1 [Example 227, 1-(cis-5-(methyl(4-(thiazol-2-yl)-2-(trifluoromethyl)benzyl)amino)octahydrocyclopenta[c]pyrrole-2-carbonyl)-1H-pyrazole-4-carboxamide] | – | – |
